Data on one substance can be found in patent EP2578599A1 (LanthioPep B.V., priority 2011, dated 2013).

One data set deals with trypsin. The data set can be described thus: Proteolytic resistance: incubation of peptide conformations with trypsin. The class given is in vitro ADME. As for the experimental part: Production of peptide in Lactococcus lactis and characterization of the peptide were performed as described in Plat et al. (Polymers 2011, 3, 1282-1296). […] After inducing dehydration the peptide was harvested from the medium and characterized. After overnight incubation of the purified peptide containing a lysinoalanine at RT in 0.25 % ammonia (w/v) the sample was applied on a C18 column ([…] analytical C18 column 5 μm). Peaks were collected and analyzed by mass spectrometry. Different conformations of the peptide were incubated with trypsin and cpY (Figure 2).

The next data set addresses carboxypeptidase Y (cpY) (Saccharomyces cerevisiae, UniProt P00729). The experiment in a line: Proteolytic resistance: incubation of peptide conformations with carboxypeptidase Y. In kind it is in vitro ADME. The settings on record: HPLC peaks of nisin leader - GLP-1 fragment (29-36) peptide treated with cpY. On the procedure:
Production of peptide in Lactococcus lactis and characterization of the peptide were performed as described in Plat et al. (Polymers 2011, 3, 1282-1296).
After overnight incubation of the purified peptide containing a lysinoalanine at RT in 0.25 % ammonia (w/v) the sample was applied on a C18 column (Alltech, alltima analytical C18 column 5 µm). Peaks were collected and analyzed by mass spectrometry. Different conformations of the peptide were incubated with trypsin and cpY (Figure 2).

carboxypeptidase Y (cpY), sequence (P00729 112-532): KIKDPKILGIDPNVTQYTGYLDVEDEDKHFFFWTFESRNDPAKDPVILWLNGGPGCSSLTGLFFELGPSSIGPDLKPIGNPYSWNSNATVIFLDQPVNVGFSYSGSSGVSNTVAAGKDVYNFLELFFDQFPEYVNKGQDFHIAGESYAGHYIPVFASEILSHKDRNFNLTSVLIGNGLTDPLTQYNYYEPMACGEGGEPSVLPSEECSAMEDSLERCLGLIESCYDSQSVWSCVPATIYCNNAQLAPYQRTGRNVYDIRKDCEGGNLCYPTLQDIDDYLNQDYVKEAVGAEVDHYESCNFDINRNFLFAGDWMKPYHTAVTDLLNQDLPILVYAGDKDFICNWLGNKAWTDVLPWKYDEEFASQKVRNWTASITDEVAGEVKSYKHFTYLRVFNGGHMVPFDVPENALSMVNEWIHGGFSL

Regarding “nisin leader - I Dha W L V K G R [lysinoalanine-bridged GLP-1 peptide]”, the protection against trypsin result in the data set on trypsin is “resistant”. Moreover, the “protection against carboxypeptidase Y (cpY)” value at carboxypeptidase Y (cpY) is given as “resistant”.
